Consider six molecules from patent US7476741B2, “Substituted 4H-chromens, 2H-chromenes, chromans and analogs as activators of caspases and inducers of apoptosis and the use thereof” (Cytovia, Inc., priority 2002, dated 2009).

Experiment [1] deals with T-47D. Briefly: Caspase cascade activation assay (N-(Ac-DEVD)-N'-ethoxycarbonyl-R110 fluorogenic substrate) in T-47D cells. The class given is cell-based. Particulars: T-47D human breast cancer cells, 24 h incubation; ratio of net RFU of compound to control. The protocol: (§1) Human breast cancer cell lines T-47D and ZR-75-1 were grown according to media component mixtures designated by American Type Culture Collection +10% FCS (Invitrogen Corporation), in a 5% CO2−95% humidity incubator at 37° C. T-47D and ZR-75-1 cells were maintained at a cell density between 30 and 80% confluency at a cell density of 0.1 to 0.6×10^6 cells/mL. Cells were harvested at 600×g and resuspended at 0.65×10^6 cells/mL into appropriate media +10% FCS. An aliquot of 45 μL of cells was added to a well of a 96-well microtiter plate containing 5 μL of a 10% DMSO in RPMI-1640 media solution containing 0.16 to 10 μM of 4-(3-bromo-4,5-dimethoxyphenyl)-3-cyano-4H-indolo[4,5-b]pyran (Example 1) or other test compound (0.016 to 1 μM final). An aliquot of 45 μL of cells was added to a well of a 96-well microtiter plate containing 5 μL of a 10% DMSO in RPMI-1640 media solution without test compound as the control sample. The samples were mixed by agitation and then incubated at 37° C. for 24 h in a 5% CO2-95% humidity incubator. After incubation, the samples were removed from the incubator and 50 μL of a solution containing 20 μM of N-(Ac-DEVD)-N′-ethoxycarbonyl-R110 (SEQ ID No.:1) fluorogenic substrate (Cytovia, Inc.; U.S. Pat. No. 6,335,429), 20% sucrose (Sigma), 20 mM DTT (Sigma), 200 mM NaCl (Sigma), 40 mM Na PIPES buffer pH 7.2 (Sigma), and 500 μg/mL lysolecithin (Calbiochem) was added. The samples were mixed by agitation and incubated at room temperature. Using a fluorescent plate reader (Model 1420 Wallac Instruments), an initial reading (T=0) was made approximately 1-2 min after addition of the substrate solution, employing excitation at 485 nm and emission at 530 nm, to determine the background fluorescence of the control sample. After the 3 h incubation, the samples were read for fluorescence as above (T=3 h).
(§2) The Relative Fluorescence Unit values (RFU) were used to calculate the sample readings as follows: RFU(T=3h)−Control RFU(T=0)=Net RFU(T=3h)
(§3) The activity of caspase cascade activation was determined by the ratio of the net RFU value for 4-(3-bromo-4,5-dimethoxyphenyl)-3-cyano-4H-indolo[4,5-b]pyran or other test compound to that of control samples. The EC50 (nM) was determined by a sigmoidal dose-response calculation (Prism 2.0, GraphPad Software Inc.).

Experiment [2] deals with ZR-75-1. The experiment can be described thus: Caspase cascade activation assay (N-(Ac-DEVD)-N'-ethoxycarbonyl-R110 fluorogenic substrate) in ZR-75-1 cells. The class given is cell-based. Particulars: ZR-75-1 human breast cancer cells, 24 h incubation; sigmoidal dose-response; read-out: ZR-75-1 EC50 (nM) (potency). How it is done:
as §1, §2, §3

A word on the EC50: it is the concentration needed to bring the measured effect to its halfway point. With `CCn1ccc2c3c(ccc21)C(c1cc(Br)c(OC)c(OC)c1)C(C#N)=CO3` (stereo not drawn) [Example 5, 4-(3-Bromo-4,5-dimethoxyphenyl)-3-cyano-7-ethyl-4H-indolo[4,5-b]pyran], in experiment [1], the “T-47D Ratio (caspase activity)” value was found to be 3.6. Also, in experiment [2], the EC50 is 18 nM.
For the molecule `COc1cc(C2CC(OC(C)=O)Oc3cc(N(C)C)ccc32)cc(Br)c1OC` (stereo not drawn) [Example 17, 2-Acetoxy-4-(3-bromo-4,5-dimethoxyphenyl)-7-dimethylamino-chroman], the “T-47D Ratio (caspase activity)” value in experiment [1] is given as 5.2. For the same molecule, the concentration for a half-maximal effect (EC50) in experiment [2] was determined as 29 nM.
As for `COc1cc(C2C(C#N)=COc3c2ccc2c3ccn2C)cc(Br)c1OC` (stereo not drawn) [Example 4, 4-(3-Bromo-4,5-dimethoxyphenyl)-3-cyano-7-methyl-4H-indolo[4,5-b]pyran], the “T-47D Ratio (caspase activity)” value in experiment [1] is 5.9. Also, the half-maximal effective concentration (EC50) in experiment [2] was 2.2 nM.
For `COc1cc(C2CC(O)Oc3cc(N(C)C)ccc32)cc(Br)c1OC` (stereo not drawn) [Example 15, 4-(3-Bromo-4,5-dimethoxyphenyl)-7-dimethylamino-2-hydroxy-chroman], in that order: 14.6 and 15 nM.
For `COc1cc(C2C(C#N)=COc3c2ccc2[nH]ccc32)cc(Br)c1OC` (stereo not drawn) [Example 1, 4-(3-Bromo-4,5-dimethoxyphenyl)-3-cyano-4H-indolo[4,5-b]pyran], in that order: 7.3 and 32 nM.
Turning to `COc1cc(C2CC(OC(C)=O)Oc3c2ccc2c3ccn2C)cc(Br)c1OC` (stereo not drawn) [Example 20, 2-Acetoxy-4-(3-bromo-4,5-dimethoxyphenyl)-7-methyl-pyrrolo[2,3-h]chroman], the “T-47D Ratio (caspase activity)” value in experiment [1] worked out at 4.7. Also, in experiment [2], the half-maximal effective concentration (EC50) came to 3 nM.
